Assay in all cases: NCI tumour cell line growth inhibition, 48 h
In experiment [1] the test system is HT29 colon.
Experiment [2] relates to SR leukemia.
Experiment [3] concerns SK-OV-3 ovarian.
The test system of experiment [4] is A498 renal.
For experiment [5], the system named is OVCAR-8 ovarian.
Experiment [6] has as its system EKVX NSCLC.
Experiment [7] concerns OVCAR-5 ovarian.
The test system of experiment [8] is U251 CNS.

Several values for one entry are separate records, joined by “and”; a condition that tells them apart may be missing. Equal entries are not always repeated.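 Method: 48-hour compound exposure of cells in 96-well plates, five concentrations, linear interpolation of endpoints. At the GI50, growth is halved. The concentration for full growth arrest is given as TGI.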

For `Clc1cnc(Nc2ccc(OCCN3CCCC3)cc2)nc1NCc1ccco1`, the GI50 in experiment [1] was 2.19 µM; in experiment [2], 1.4 µM; in experiment [3], 3.62 µM; in experiment [4], 1.45 µM; in experiment [5], 3.54 µM; in experiment [6], 2.1 µM. Besides, the GI50 in experiment [7] was 1.95 µM; in experiment [8] it was 2.81 µM. The TGI in experiment [1] worked out at 9.18 µM; in experiment [2] it was 6.61 µM; in experiment [3], 34.1 µM; in experiment [4], 3.88 µM; in experiment [5] it was 13.7 µM; in experiment [6], 6.47 µM. Also, the TGI in experiment [7] is over 100 µM; in experiment [8] it was 11.4 µM.
In the case of `CCCCCCCCN(CCCCCCCC)CC(O)c1cc(-c2ccccc2)nc2ccc(OC)cc12` (stereo not given), the GI50 was 18.3 µM in experiment [1]; 10.1 µM in experiment [2]; over 100 µM in experiment [3]; over 100 µM in experiment [4]; 32.2 µM in experiment [5]; over 100 µM in experiment [6]. Besides, the GI50 in experiment [7] is over 100 µM; in experiment [8], 27.8 µM. Moreover, the TGI in experiment [1] is over 100 µM; in experiment [2], 97.3 µM; in experiment [3] it was over 100 µM; in experiment [4], over 100 µM; in experiment [5], over 100 µM; in experiment [6] it was over 100 µM. Further, the figures for the TGI in experiment [7] and in experiment [8] were over 100 µM and 96.2 µM, respectively.
For `COC(=O)NC(Cc1ccccc1)NC(=O)OC(C)(C)C` (stereo not given), the TGI in experiment [1], in experiment [2], in experiment [3], in experiment [4], in experiment [5] and in experiment [6] was over 100 µM throughout. For the same compound, the TGI in experiment [7] and in experiment [8] was over 100 µM throughout.
Turning to `COc1ccc(C(=O)/C=C/c2ccc(OCc3cccc(C(F)(F)F)c3)c(OC)c2)cc1OC`, the GI50 in experiment [1] was 52.1 µM; in experiment [2], 33.8 µM; in experiment [3], 221 µM; in experiment [4] it was 207 µM; in experiment [5], 48.8 µM; in experiment [6], 45.8 µM. In addition, the GI50 in experiment [7] was 292 µM; in experiment [8] it was 61.4 µM. Further, the TGI in experiment [1], in experiment [2], in experiment [3], in experiment [4], in experiment [5] and in experiment [6] was over 1000 µM each time. The TGI in experiment [7] and in experiment [8] was over 1000 µM each time.
On to `O=C(Nc1ccc(Br)c2ccccc12)c1ccc2ccccc2c1O`, for which the TGI in experiment [1] was 15.3 µM; in experiment [2], over 100 µM; in experiment [3] it was 18.6 µM; in experiment [4], 30.8 µM; in experiment [5] it was 19.2 µM; in experiment [6], over 100 µM. Moreover, the TGI worked out at 12.7 µM in experiment [7] and 35.2 µM in experiment [8].
In the case of `CC12CCC(C1)C(C)(C)C2OC(=O)c1ccccc1N` (stereo not given), the TGI in experiment [1] turned out to be 29.1 µM; in experiment [2], 25.8 µM; in experiment [3] it was 30.3 µM; in experiment [4], 28.6 µM; in experiment [5] it was 38.5 µM; in experiment [6] it was 30.2 µM. In addition, the TGI was determined as 35 µM in experiment [7] and 32.6 µM in experiment [8].
On to `COc1cc2ncnc(Oc3ccc(NC(=O)Nc4ccc(CN5CCOCC5)c(C(F)(F)F)c4)c4ccccc34)c2cc1OC`, for which the GI50 is 0.547 µM in experiment [1]; 0.752 µM in experiment [2]; 0.254 µM in experiment [3]; 0.0424 µM in experiment [4]; 0.537 µM in experiment [5]; 0.463 µM in experiment [6]. The figures for the GI50 in experiment [7] and in experiment [8] were 1.15 µM and 1.05 µM, respectively. Besides, the TGI in experiment [1] was found to be 10.3 µM; in experiment [2], 6.02 µM; in experiment [3], 1.26 µM; in experiment [4] it was 0.584 µM; in experiment [5], 6.53 µM; in experiment [6], 5.91 µM. Also, the TGI in experiment [7] was found to be 6.95 µM; in experiment [8], 4.01 µM.
As to `Clc1ccc2c(NC3CCC(N4CCCCC4)CC3)ccnc2c1` (stereo not given), the TGI in experiment [1] is 40.7 µM; in experiment [2], 35.5 µM; in experiment [3], over 100 µM; in experiment [4], 38.6 µM; in experiment [5], over 100 µM; in experiment [6], over 100 µM. For the same compound, the values for the TGI in experiment [7] and in experiment [8] were over 100 µM and 57.1 µM, respectively.
For `N#C/C(=C\c1ccc[nH]1)c1cc(-c2ccc(Cl)cc2)nn1-c1ccccc1`, the GI50 in experiment [1] is 3.31 µM; in experiment [2] it was 1.97 µM; in experiment [3], 7.88 µM; in experiment [4], 2.62 µM; in experiment [5], 11.5 µM; in experiment [6], 2.89 µM. Moreover, the GI50 is 15.7 µM in experiment [7] and 7.07 µM in experiment [8]. Besides, the TGI is 13 µM in experiment [1]; 6.28 µM in experiment [2]; 40.2 µM in experiment [3]; 12.6 µM in experiment [4]; over 100 µM in experiment [5]; over 100 µM in experiment [6]. Besides, the TGI in experiment [7] stood at 50.3 µM; in experiment [8], 24 µM.
On to `OC(c1cc(C(F)(F)F)nc2c(Cl)cc(Cl)cc12)C1CCCCN1` (stereo not given), for which the TGI in experiment [1] is over 38.9 µM; in experiment [2], 5.32 µM; in experiment [3], 25.2 µM; in experiment [4] it was over 51.4 µM; in experiment [5] it was 32.5 µM; in experiment [6], over 100 µM. Moreover, the figures for the TGI in experiment [7] and in experiment [8] were over 50.4 µM and over 48.3 µM, respectively.
Regarding `CC1Cc2c(Cl)ncnc2N(C)c2ccccc21` (stereo not given), the GI50 in experiment [1] was 2.47 µM; in experiment [2], 3.33 µM; in experiment [3] it was 2.37 µM; in experiment [4], 1.98 µM; in experiment [5], 3.42 µM; in experiment [6] it was 3.13 µM. Further, the GI50 is 6.02 µM in experiment [7] and 3.92 µM in experiment [8]. The TGI is 7.27 µM in experiment [1]; 32.6 µM in experiment [2]; 12.6 µM in experiment [3]; 5.41 µM in experiment [4]; 27.3 µM in experiment [5]; over 100 µM in experiment [6]. The TGI is over 100 µM in experiment [7] and 37.9 µM in experiment [8].
Regarding `COc1cc2c(cc1OCC(=O)Nc1ccc(Cl)cc1C(=O)c1ccccc1Cl)N=CC1CCCN1C2=O` (stereo not given), the GI50 in experiment [1] is 11.9 µM; in experiment [2] it was 3.7 µM; in experiment [3], 3.08 µM; in experiment [4] it was 12.3 µM; in experiment [5] it was 12 µM; in experiment [6], 20.3 µM. Also, the GI50 in experiment [7] was 24.6 µM; in experiment [8], 6.36 µM. In addition, the TGI in experiment [1] is 34.2 µM; in experiment [2], 28 µM; in experiment [3], 12 µM; in experiment [4] it was 24.9 µM; in experiment [5], 26.3 µM; in experiment [6], 35.1 µM. Also, the TGI in experiment [7] came to 45.5 µM; in experiment [8] it was 19.3 µM.
As to `CC1=CC2(C)/C=C(C)/C=C\CC(O)/C=C3/C=CC(=C4C(=O)OC2(CC1C)C4=O)OC3` (stereo not given), the GI50 is 2.4 µM in experiment [1]; 1.59 µM in experiment [2]; 19.4 µM in experiment [3]; 2.65 µM in experiment [4]; 2.12 µM in experiment [5]; 3.09 µM in experiment [6]. Also, the GI50 was 2.93 µM in experiment [7] and 1.64 µM in experiment [8]. Besides, the TGI in experiment [1] was over 26.4 µM; in experiment [2], over 100 µM; in experiment [3], 47.3 µM; in experiment [4] it was 8.11 µM; in experiment [5], 9.01 µM; in experiment [6] it was over 31.7 µM. Further, the results for the TGI in experiment [7] and in experiment [8] were 10.1 µM and 3.58 µM, respectively.
As for `CC1(C)OCC2OC(n3cnc4c(N)nc(Cl)nc43)C(OS(C)(=O)=O)C2O1` (stereo not given), the TGI in experiment [1], in experiment [2], in experiment [3], in experiment [4], in experiment [5] and in experiment [6] was over 100 µM in each case. Further, the TGI in experiment [7] and in experiment [8] was over 100 µM in each case.
Take `Cc1c(C(=O)Nc2ccc(N3C[C@@H](C)O[C@@H](C)C3)nc2)cccc1-c1ccc(OC(F)(F)F)cc1`: the GI50 in experiment [1] was 11.9 µM and 15.1 µM; in experiment [2], 28.2 µM and > 100 µM; in experiment [3], 11.4 µM and 15.2 µM; in experiment [4], 3.77 µM and 2.04 µM; in experiment [5], 7.9 µM and 10.8 µM; in experiment [6] it was 5.73 µM and 4.55 µM. The GI50 was 15.7 µM and 19.6 µM in experiment [7]; 8.6 µM and 12 µM in experiment [8]. For the same compound, the TGI in experiment [1] is 41.7 µM and 64.4 µM; in experiment [2] it was over 100 µM; in experiment [3], 30 µM and 34.5 µM; in experiment [4], 14 µM and 9.97 µM; in experiment [5], 30.9 µM and 46.3 µM; in experiment [6], 28.4 µM and 34.2 µM. Besides, the TGI is 42.7 µM and 48.9 µM in experiment [7]; 28 µM and 38.4 µM in experiment [8].
With `C=C1C(=O)O[C@@H]2/C=C(/C)[C@@H](OC(C)=O)C[C@@H](O)/C(C)=C\[C@@H](OC(=O)[C@]3(C)O[C@@H]3C)[C@@H]12`, the TGI in experiment [1] is 30.7 µM; in experiment [2] it was 21.5 µM; in experiment [3], over 100 µM; in experiment [4] it was 32.3 µM; in experiment [5], 27.4 µM; in experiment [6], 24.4 µM. Moreover, the TGI was 32.6 µM in experiment [7] and 31.3 µM in experiment [8].

For the origin of these results see PubChem BioAssay (NCI).
